The NIST ThermoML archive (doi:10.1021/je050494l)
Numbers after ± are expanded uncertainties.

Assay: refractive index (Na D-line) (dimensionless)
Conditions: 298.2 K, 101.33 kPa, Liquid

Structure (SMILES)	refractive index	refractive index (Standard Abbe refractometry)
CCCCCCCC[n+]1ccn(C)c1.COCCOCCOS(=O)(=O)[O-] [1-methyl-3-octylimidazolium 2-(2-methoxyethoxy)ethyl sulfate]	1.466 ± 0.0009	–
CCCCCCC [heptane]	1.385 ± 0.0009	–
CCCCCCCCOS(=O)(=O)[O-].CCn1cc[n+](C)c1 [1-ethyl-3-methylimidazolium octyl sulfate]	–	1.471 ± 0.0006
CCCCCCCCCCCCCCCC [hexadecane]	1.4318 ± 0.0009	–
c1ccccc1 [benzene]	1.4972 ± 0.0009	–
